Laboratory results reported in US20250195521A1 (Revolution Medicines, Inc., priority 2020, published 2025).
Read-outs that look alike come from different tables or passages of the source.

How the values were obtained:
[1] = target: KRAS G13D binding to BRAF RBD (Homo sapiens (Human), UniProt P01116+P62937, G13D); assay: Ras-Raf disruption/FRET/MOA assay, KRAS G13D; format: biochemical
Description: (§1) Note—The following protocol describes a procedure for monitoring disruption of K-Ras G12C(GMP-PNP) binding to BRAF^RBD by a compound of the invention. This protocol may also be executed substituting other Ras proteins or nucleotides.
(§2) The purpose of this biochemical assay was to measure the ability of test compounds to facilitate ternary complex formation between a nucleotide-loaded K-Ras isoform and Cyclophilin A; the resulting ternary complex disrupts binding to a BRAF^RBD construct, inhibiting K-Ras signaling through a RAF effector. Data is reported as IC50 values.
(§3) Compound was present in plate wells as a 10-point 3-fold dilution series starting at a final concentration of 30 μM. After incubation at 25° C. for 3 hours, a mixture of Anti-His Eu—W1024 and anti-GST allophycocyanin was then added to assay sample wells at final concentrations of 10 nM and 50 nM, respectively, and the reaction incubated for an additional 1.5 hours. […] Compounds that facilitate disruption of a K-Ras: RAF complex were identified as those eliciting a decrease in the TR-FRET ratio relative to DMSO control wells.

[2] = target: NRAS G12C binding to BRAF RBD (Homo sapiens (Human), UniProt P01111+P62937, G12C); assay: Ras-Raf disruption/FRET/MOA assay, NRAS G12C; format: biochemical
Description: as §1, §2, §3

KRAS G12V = KRAS G12V (Homo sapiens (Human), UniProt P01116+P62937, G12V); assay: Ras-Raf disruption/FRET/MOA assay, KRAS G12V; format: biochemical
In short: (§4)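 Measured by TR-FRET: a decrease relative to DMSO indicates disruption of GMPPNP-Ras binding to BRAF^RBD, mediated by Cyclophilin A (25 μM). Compound was tested as a dilution series up to 30 μM with 3 h preincubation at 25° C.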

KRAS WT = KRAS WT (Homo sapiens (Human), UniProt P01116+P62937); assay: Ras-Raf disruption/FRET/MOA assay, KRAS WT; format: biochemical
In short: as §4

NCI-H358 (K-Ras G12C) = assay: CellTiter-Glo cell viability assay, H358; format: cell-based, human; details: Homo sapiens, NCI-H358, 120 h
In short: (§5)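 Steps: compound dispensed into wells holding cells; incubation to day 5; ~30 min room-temperature equilibration; luminescence read; sample signal divided by mean DMSO signal, times 100; four-parameter logistic curve fit.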

KRAS G12D = KRAS G12D (Homo sapiens (Human), UniProt P01116+P62937, G12D); assay: Ras-Raf disruption/FRET/MOA assay, KRAS G12D; format: biochemical
In short: as §4

KRAS G12C = KRAS G12C (Homo sapiens (Human), UniProt P01116+P62937, G12C); assay: Ras-Raf disruption/FRET/MOA assay, KRAS G12C; format: biochemical
In short: as §4

NRAS G12C = NRAS G12C (Homo sapiens (Human), UniProt P01111+P62937, G12C); assay: Ras-Raf disruption/FRET/MOA assay, NRAS G12C; format: biochemical
In short: as §4

AsPC-1 (K-Ras G12D) [3] = assay: Potency assay: pERK; format: cell-based, human; details: Homo sapiens
In short: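 Cells plated overnight, then exposed 4 h at 37 °C to 10-point 3-fold dilutions of compound, in duplicate. pERK read by AlphaLISA SureFire Ultra p-ERK1/2 lysate assay or by In-Cell Western (pERK antibody, DRAQ5 DNA normalisation). IC50 from 4-parameter sigmoidal fit of signal vs log concentration.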

KRAS G13C = KRAS G13C (Homo sapiens (Human), UniProt P01116+P62937, G13C); assay: Ras-Raf disruption/FRET/MOA assay, KRAS G13C; format: biochemical
In short: as §4

KRAS G12S = KRAS G12S (Homo sapiens (Human), UniProt P01116+P62937, G12S); assay: Ras-Raf disruption/FRET/MOA assay, KRAS G12S; format: biochemical
In short: as §4

AsPC-1 (K-Ras G12D) [4] = assay: CellTiter-Glo cell viability assay, AsPC-1; format: cell-based, human; details: Homo sapiens, ASPC1, 120 h, read-out: AsPC-1 Cell Viability IC50
In short: as §5

KRAS G13D = KRAS G13D (Homo sapiens (Human), UniProt P01116+P62937, G13D); assay: Ras-Raf disruption/FRET/MOA assay, KRAS G13D; format: biochemical
In short: as §4

[5] = read-out: H358 Cell Viability IC50, K-Ras G12C, 5-day treatment
[6] = read-out: KRAS G12C FRET data IC50
[7] = read-out: NRAS G12C FRET data IC50

KRAS G12C, sequence (P01116-2 other isoform, or with tags, fused parts or gaps G12C): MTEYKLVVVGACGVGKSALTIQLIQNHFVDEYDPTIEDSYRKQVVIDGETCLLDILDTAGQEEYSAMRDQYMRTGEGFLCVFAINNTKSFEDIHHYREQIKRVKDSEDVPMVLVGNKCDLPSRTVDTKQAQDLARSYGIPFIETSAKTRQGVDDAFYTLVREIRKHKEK
KRAS G12C, sequence (P62937 whole entry): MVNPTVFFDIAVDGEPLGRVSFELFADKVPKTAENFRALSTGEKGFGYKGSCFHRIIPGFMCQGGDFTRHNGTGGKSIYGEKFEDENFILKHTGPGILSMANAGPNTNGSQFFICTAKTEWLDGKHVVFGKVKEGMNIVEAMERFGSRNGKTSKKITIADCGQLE
KRAS G12S, sequence (P01116 other isoform, or with tags, fused parts or gaps G12S): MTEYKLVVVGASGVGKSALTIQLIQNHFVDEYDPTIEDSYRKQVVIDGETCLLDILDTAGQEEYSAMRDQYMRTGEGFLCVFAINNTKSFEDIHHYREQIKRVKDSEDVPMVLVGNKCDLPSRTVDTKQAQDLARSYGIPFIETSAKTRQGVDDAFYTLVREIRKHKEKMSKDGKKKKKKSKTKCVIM
KRAS G12S, sequence (P62937 whole entry): as the sequence (P62937 whole entry) above
KRAS G12D, sequence (P01116 other isoform, or with tags, fused parts or gaps G12D): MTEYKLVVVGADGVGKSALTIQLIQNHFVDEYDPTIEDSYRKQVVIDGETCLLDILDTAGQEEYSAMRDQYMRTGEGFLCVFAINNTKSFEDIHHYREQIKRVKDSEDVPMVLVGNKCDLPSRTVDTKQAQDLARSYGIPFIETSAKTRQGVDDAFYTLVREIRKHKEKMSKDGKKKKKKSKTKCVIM
KRAS G12D, sequence (P62937 whole entry): as the sequence (P62937 whole entry) above
KRAS G13D, sequence (P01116 other isoform, or with tags, fused parts or gaps G13D): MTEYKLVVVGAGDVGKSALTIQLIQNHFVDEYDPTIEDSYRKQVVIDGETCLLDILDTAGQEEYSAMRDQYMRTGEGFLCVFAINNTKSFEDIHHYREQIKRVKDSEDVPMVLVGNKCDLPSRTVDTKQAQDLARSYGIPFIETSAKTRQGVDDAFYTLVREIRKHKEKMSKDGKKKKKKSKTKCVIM
KRAS G13D, sequence (P62937 whole entry): as the sequence (P62937 whole entry) above
KRAS G13C, sequence (P01116 other isoform, or with tags, fused parts or gaps G13C): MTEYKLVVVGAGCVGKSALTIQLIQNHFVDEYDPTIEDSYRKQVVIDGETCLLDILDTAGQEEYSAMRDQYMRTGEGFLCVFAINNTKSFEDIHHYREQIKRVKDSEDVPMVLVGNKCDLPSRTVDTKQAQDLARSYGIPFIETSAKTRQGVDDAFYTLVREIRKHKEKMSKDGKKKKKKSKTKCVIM
KRAS G13C, sequence (P62937 whole entry): as the sequence (P62937 whole entry) above
KRAS WT, sequence (P01116 other isoform, or with tags, fused parts or gaps): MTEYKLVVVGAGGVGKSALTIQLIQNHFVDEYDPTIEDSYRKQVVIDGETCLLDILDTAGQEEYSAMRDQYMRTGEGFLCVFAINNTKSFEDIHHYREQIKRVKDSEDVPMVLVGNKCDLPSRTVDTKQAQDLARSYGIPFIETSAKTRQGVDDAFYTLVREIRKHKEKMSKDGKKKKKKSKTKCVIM
KRAS WT, sequence (P62937 whole entry): as the sequence (P62937 whole entry) above
NRAS G12C, sequence (P01111 whole entry G12C): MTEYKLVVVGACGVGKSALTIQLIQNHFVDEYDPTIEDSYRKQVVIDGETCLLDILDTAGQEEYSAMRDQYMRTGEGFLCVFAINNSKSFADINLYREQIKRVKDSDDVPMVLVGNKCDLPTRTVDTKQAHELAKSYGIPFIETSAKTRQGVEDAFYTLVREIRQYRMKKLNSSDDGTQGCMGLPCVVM
NRAS G12C, sequence (P62937 whole entry): as the sequence (P62937 whole entry) above
KRAS G12V, sequence (P01116 other isoform, or with tags, fused parts or gaps G12V): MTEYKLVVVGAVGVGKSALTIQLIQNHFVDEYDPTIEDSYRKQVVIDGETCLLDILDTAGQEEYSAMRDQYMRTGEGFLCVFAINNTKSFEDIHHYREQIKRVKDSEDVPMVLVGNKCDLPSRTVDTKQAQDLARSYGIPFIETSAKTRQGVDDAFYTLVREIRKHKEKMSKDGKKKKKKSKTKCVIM
KRAS G12V, sequence (P62937 whole entry): as the sequence (P62937 whole entry) above
KRAS G13D binding to BRAF RBD, sequence (P01116 other isoform, or with tags, fused parts or gaps G13D): as the sequence (P01116 other isoform, or with tags, fused parts or gaps G13D) above
KRAS G13D binding to BRAF RBD, sequence (P62937 whole entry): as the sequence (P62937 whole entry) above
NRAS G12C binding to BRAF RBD, sequence (P01111 whole entry G12C): as the sequence (P01111 whole entry G12C) above
NRAS G12C binding to BRAF RBD, sequence (P62937 whole entry): as the sequence (P62937 whole entry) above

With CCn1c(-c2cccnc2[C@H](C)OC)c2c3cc(ccc31)-c1cccc(c1)C[C@H](NC(=O)[C@H](C(C)C)N(C)C(=O)[C@H]1CCN(C(=O)C#CC3CCO3)C1)C(=O)N1CC(Br)C[C@H](N1)C(=O)OCC(C)(C)C2 (some centres unmarked) [Compound A508] the IC50 [1] was greater than 10000 nM and the IC50 [2] was 100 to 1000 nM.

CCn1c(-c2cnccc2COC)c2c3cc(ccc31)-c1cc(O)cc(c1)C[C@H](NC(=O)[C@H](C(C)C)N(C)C(=O)CN(C)C(=O)[C@@H]1N[C@H]1c1ccccc1)C(=O)N1CCC[C@H](N1)C(=O)OCC(C)(C)C2 [Example 11] showed an IC50 (KRAS G12V) of 10 to 100 nM, an IC50 (KRAS WT) of 100 to 1000 nM and an IC50 (NCI-H358 (K-Ras G12C); [5]) of 100 to 1000 nM. It also gave an IC50 (KRAS G12D) of 1000 to 10000 nM, an IC50 (KRAS G12C) of 10 to 100 nM and an IC50 (NRAS G12C) of 10 to 100 nM. For the same compound, the EC50 (AsPC-1 (K-Ras G12D) [3]; ASPC1, read-out: pERK EC50) was less than 5000 nM, the IC50 (KRAS G13C) was 10 to 100 nM and the IC50 (KRAS G12S) was 10 to 100 nM. The IC50 (AsPC-1 (K-Ras G12D) [4]) was 1000 to 10000 nM and the IC50 (KRAS G13D) was 100 to 1000 nM.

CCn1c(-c2cnccc2COC)c2c3cc(ccc31)-c1cc(O)cc(c1)C[C@H](NC(=O)[C@H](C(C)C)N(C)C(=O)CN(C)C(=O)[C@H]1N[C@@H]1c1ccccc1)C(=O)N1CCC[C@H](N1)C(=O)OCC(C)(C)C2 [Example 12] was tested, and the IC50 (KRAS G12V) was 10 to 100 nM, the IC50 (KRAS WT) was 10 to 100 nM and the IC50 (NCI-H358 (K-Ras G12C); [5]) was 100 to 1000 nM. It also gave an IC50 (KRAS G12D) of 100 to 1000 nM, an IC50 (KRAS G12C) of 10 to 100 nM and an IC50 (NRAS G12C) of 10 to 100 nM. The EC50 (AsPC-1 (K-Ras G12D) [3]; ASPC1, read-out: pERK EC50) was less than 5000 nM, the IC50 (KRAS G13C) was 10 to 100 nM and the IC50 (KRAS G12S) was 10 to 100 nM. The IC50 (AsPC-1 (K-Ras G12D) [4]) was 100 to 1000 nM and the IC50 (KRAS G13D) was 10 to 100 nM.

Compound CCn1c(-c2cccnc2COC)c2c3cc(ccc31)-c1cc(O)cc(c1)C[C@H](NC(=O)[C@H](C(C)C)N(C)C(=O)CCNC(=O)NCCCl)C(=O)N1CCC[C@H](N1)C(=O)OCC(C)(C)C2 [Example 25, (2S)-2-(3-(3-(2-chloroethyl)ureido)-N-methylpropanamido)-N-((6^3S,4S)-1^1-ethyl-25-hydroxy-1^2-(2-(methoxymethyl)pyridin-3-yl)-10,10-dimethyl-5,7-dioxo-6^1,6^2,6^3,6^4,6^5,6^6-hexahydro-1^1H-8-oxa-1 (5,3)-indola-6 (1,3)-pyridazina-2 (1,3)-benzenacycloundecaphane-4-yl)-3-methylbutanamide] has an IC50 (KRAS G12V) of 1000 to 10000 nM, an IC50 (KRAS WT) of 1000 to 10000 nM and an IC50 (NCI-H358 (K-Ras G12C); [5]) greater than 10000 nM. For the same compound, the IC50 (KRAS G12D) was greater than 10000 nM, the IC50 (KRAS G12C) was 1000 to 10000 nM and the IC50 (NRAS G12C) was greater than 10000 nM. The IC50 (KRAS G13C) was 1000 to 10000 nM, the IC50 (KRAS G12S) was greater than 10000 nM and the IC50 (KRAS G13D) was 1000 to 10000 nM.

For CCn1c(-c2cnccc2COC)c2c3cc(ccc31)-c1cc(O)cc(c1)C[C@H](NC(=O)[C@@H](CCNC1=NCCO1)C(C)C)C(=O)N1CCC[C@H](N1)C(=O)OCC(C)(C)C2 [Example 30], the IC50 (KRAS G12V; read-out: KRAS G12V FRET IC50) was 1000 to 10000 nM, the IC50 (KRAS WT; read-out: KRAS WT FRET IC50) was 1000 to 10000 nM and the IC50 (NCI-H358 (K-Ras G12C); read-out: H358 Cell Viability IC50) was 1000 to 10000 nM. For the same compound, the IC50 (KRAS G12D; read-out: KRAS G12D FRET IC50) was greater than 10000 nM, the IC50 (KRAS G12C; [6]) was 1000 to 10000 nM and the IC50 (NRAS G12C; [7]) was greater than 10000 nM. The IC50 (KRAS G13C; read-out: KRAS G13C FRET IC50) was greater than 10000 nM, the IC50 (KRAS G12S; read-out: KRAS G12S FRET IC50) was greater than 10000 nM and the IC50 (KRAS G13D; read-out: KRAS G13D FRET IC50) was 1000 to 10000 nM.

CCn1c(-c2cnccc2COC)c2c3cc(ccc31)-c1cc(O)cc(c1)C[C@H](NC(=O)[C@H](C(C)C)N(C)C(=O)CN(C)C(=O)[C@@H]1N[C@H]1c1ccc(OC)cc1)C(=O)N1CCC[C@H](N1)C(=O)OCC(C)(C)C2 [Example 96] was tested, and the IC50 (KRAS G12V) was 10 to 100 nM, the IC50 (KRAS WT) was 10 to 100 nM and the IC50 (NCI-H358 (K-Ras G12C); [5]) was 1000 to 10000 nM. The IC50 (KRAS G12D) was 100 to 1000 nM, the IC50 (KRAS G12C) was 10 to 100 nM and the IC50 (NRAS G12C) was 10 to 100 nM. For the same compound, the EC50 (AsPC-1 (K-Ras G12D) [3]; ASPC1, read-out: pERK EC50) was less than 5000 nM, the IC50 (KRAS G13C) was 10 to 100 nM and the IC50 (KRAS G12S) was 10 to 100 nM. It also gave an IC50 (AsPC-1 (K-Ras G12D) [4]) of 1000 to 10000 nM and an IC50 (KRAS G13D) of 100 to 1000 nM.

CCn1c(-c2cnccc2COC)c2c3cc(ccc31)-c1cc(O)cc(c1)C[C@H](NC(=O)[C@H](C(C)C)N(C)C(=O)CN(C)C(=O)[C@@H]1N[C@@H]1C1CC1)C(=O)N1CCC[C@H](N1)C(=O)OCC(C)(C)C2 [Example 103] showed an IC50 (KRAS G12V) of 10 to 100 nM, an IC50 (KRAS WT) of 10 to 100 nM and an IC50 (NCI-H358 (K-Ras G12C); [5]) of 100 to 1000 nM. For the same compound, the IC50 (KRAS G12D) was 10 to 100 nM, the IC50 (KRAS G12C) was 10 to 100 nM and the IC50 (NRAS G12C) was 10 to 100 nM. It also gave an EC50 (AsPC-1 (K-Ras G12D) [3]; ASPC1, read-out: pERK EC50) of less than 5000 nM, an IC50 (KRAS G13C) of 10 to 100 nM and an IC50 (KRAS G12S) of 10 to 100 nM. For the same compound, the IC50 (AsPC-1 (K-Ras G12D) [4]) was 100 to 1000 nM and the IC50 (KRAS G13D) was 100 to 1000 nM.

In the case of CCn1c(-c2cccnc2[C@H](C)OC)c2c3cc(ccc31)-c1cc(O)cc(c1)C[C@H](NC(=O)[C@H](C(C)C)N1CC[C@@]3(CCC(C(=O)[C@@H]4N[C@@H]4C4CC4)C3)C1=O)C(=O)N1CCC[C@H](N1)C(=O)OCC(C)(C)C2 (some centres unmarked) [Example 128], the IC50 (KRAS G12V; read-out: KRAS G12V FRET IC50) is reported as 100 to 1000 nM, the IC50 (KRAS WT; read-out: KRAS WT FRET IC50) is reported as 100 to 1000 nM and the IC50 (KRAS G12D; read-out: KRAS G12D FRET IC50) is reported as 100 to 1000 nM. The IC50 (KRAS G12C; [6]) was 10 to 100 nM, the IC50 (NRAS G12C; [7]) was 10 to 100 nM and the EC50 (AsPC-1 (K-Ras G12D) [3]; ASPC1, AsPC-1 KRAS G12D, read-out: pERK EC50) was less than 5000 nM. It also gave an IC50 (KRAS G13C; read-out: KRAS G13C FRET IC50) of 10 to 100 nM, an IC50 (KRAS G12S; read-out: KRAS G12S FRET IC50) of 100 to 1000 nM and an IC50 (AsPC-1 (K-Ras G12D) [4]; K-Ras G12D, 5-day treatment) of 1000 to 10000 nM. It also gave an IC50 (KRAS G13D; read-out: KRAS G13D FRET IC50) of 100 to 1000 nM.
